Results reported in PubChem BioAssay (NCI).
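Each compound was tested at five concentrations against cells in 96-well plates for 48 hours. GI50 = concentration required for 50% inhibition of growth. Definition used: TGI = concentration required for complete inhibition of growth.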

Experiments:
Assay in all cases: NCI tumour cell line growth inhibition, 48 h
786-0 renal = system: 786-0 renal
A498 renal = system: A498 renal
A549 NSCLC = system: A549 NSCLC
ACHN renal = system: ACHN renal
BT-549 breast = system: BT-549 breast
CAKI-1 renal = system: CAKI-1 renal
CCRF-CEM leukemia = system: CCRF-CEM leukemia
COLO 205 colon = system: COLO 205 colon
DU-145 prostate = system: DU-145 prostate
EKVX NSCLC = system: EKVX NSCLC
HCC-2998 colon = system: HCC-2998 colon
HCT-116 colon = system: HCT-116 colon
HCT-15 colon = system: HCT-15 colon
HOP-62 NSCLC = system: HOP-62 NSCLC
HOP-92 NSCLC = system: HOP-92 NSCLC
HS 578T breast = system: HS 578T breast
HT29 colon = system: HT29 colon
IGROV1 ovarian = system: IGROV1 ovarian
K-562 leukemia = system: K-562 leukemia
KM12 colon = system: KM12 colon
LOX IMVI melanoma = system: LOX IMVI melanoma
M14 melanoma = system: M14 melanoma
MALME-3M melanoma = system: MALME-3M melanoma
MCF7 breast = system: MCF7 breast
MDA-MB-231 breast = system: MDA-MB-231 breast
MDA-MB-435 = system: MDA-MB-435
MOLT-4 leukemia = system: MOLT-4 leukemia
NCI-H226 lung = system: NCI-H226 lung
NCI-H23 lung = system: NCI-H23 lung
NCI-H460 lung = system: NCI-H460 lung
NCI-H522 lung = system: NCI-H522 lung
OVCAR-3 ovarian = system: OVCAR-3 ovarian
OVCAR-4 ovarian = system: OVCAR-4 ovarian
OVCAR-5 ovarian = system: OVCAR-5 ovarian
OVCAR-8 ovarian = system: OVCAR-8 ovarian
PC-3 prostate = system: PC-3 prostate
RPMI-8226 leukemia = system: RPMI-8226 leukemia
RXF 393 renal = system: RXF 393 renal
SF-268 CNS = system: SF-268 CNS
SF-295 CNS = system: SF-295 CNS
SF-539 CNS = system: SF-539 CNS
SK-MEL-2 melanoma = system: SK-MEL-2 melanoma
SK-MEL-28 melanoma = system: SK-MEL-28 melanoma
SK-MEL-5 melanoma = system: SK-MEL-5 melanoma
SK-OV-3 ovarian = system: SK-OV-3 ovarian
SN12C renal = system: SN12C renal
SNB-19 CNS = system: SNB-19 CNS
SNB-75 CNS = system: SNB-75 CNS
SW-620 colon = system: SW-620 colon
T-47D breast = system: T-47D breast
TK-10 renal = system: TK-10 renal
U251 CNS = system: U251 CNS
UACC-257 melanoma = system: UACC-257 melanoma
UACC-62 melanoma = system: UACC-62 melanoma
UO-31 renal = system: UO-31 renal

## Cc1ccc2[nH]c(C(=O)NN3C(=O)C(C)SC34CCCC(C)C4)c(-c3ccccc3)c2c1 (stereo not given)
786-0 renal
  GI50: 58.3 µM
  TGI: > 100 µM
A498 renal
  GI50: > 100 µM
  TGI: > 100 µM
A549 NSCLC
  GI50: 30.9 µM
  TGI: > 100 µM
ACHN renal
  GI50: > 100 µM
  TGI: > 100 µM
BT-549 breast
  GI50: 76.7 µM
  TGI: > 100 µM
CAKI-1 renal
  GI50: 95.5 µM
  TGI: > 100 µM
CCRF-CEM leukemia
  GI50: 74.1 µM
  TGI: > 100 µM
COLO 205 colon
  GI50: 94.1 µM
  TGI: > 100 µM
DU-145 prostate
  GI50: > 100 µM
  TGI: > 100 µM
EKVX NSCLC
  GI50: > 100 µM
  TGI: > 100 µM
HCC-2998 colon
  GI50: 76.6 µM
  TGI: > 100 µM
HCT-116 colon
  GI50: 75.7 µM
  TGI: > 100 µM
HCT-15 colon
  GI50: 87 µM
  TGI: > 100 µM
HOP-62 NSCLC
  GI50: > 100 µM
  TGI: > 100 µM
HOP-92 NSCLC
  GI50: > 100 µM
  TGI: > 100 µM
HS 578T breast
  GI50: 87.8 µM
  TGI: > 100 µM
HT29 colon
  GI50: 33.9 µM
  TGI: > 100 µM
IGROV1 ovarian
  GI50: 59.1 µM
  TGI: > 100 µM
K-562 leukemia
  GI50: 35.1 µM
  TGI: > 100 µM
KM12 colon
  GI50: 65.6 µM
  TGI: > 100 µM
LOX IMVI melanoma
  GI50: > 100 µM
  TGI: > 100 µM
M14 melanoma
  GI50: > 100 µM
  TGI: > 100 µM
MALME-3M melanoma
  GI50: 69 µM
  TGI: > 100 µM
MCF7 breast
  GI50: 32.7 µM
  TGI: > 100 µM
MDA-MB-231 breast
  GI50: > 100 µM
  TGI: > 100 µM
MDA-MB-435
  GI50: > 100 µM
  TGI: > 100 µM
MOLT-4 leukemia
  GI50: 19.3 µM
  TGI: > 100 µM
NCI-H226 lung
  GI50: > 100 µM
  TGI: > 100 µM
NCI-H23 lung
  GI50: > 100 µM
  TGI: > 100 µM
NCI-H460 lung
  GI50: 83.3 µM
  TGI: > 100 µM
NCI-H522 lung
  GI50: 78 µM
  TGI: > 100 µM
OVCAR-3 ovarian
  GI50: 97.3 µM
  TGI: > 100 µM
OVCAR-4 ovarian
  GI50: 50 µM
  TGI: > 100 µM
OVCAR-5 ovarian
  GI50: > 100 µM
  TGI: > 100 µM
OVCAR-8 ovarian
  GI50: 34.5 µM
  TGI: > 100 µM
PC-3 prostate
  GI50: 55.1 µM
  TGI: > 100 µM
RPMI-8226 leukemia
  GI50: 53.1 µM
  TGI: > 100 µM
RXF 393 renal
  GI50: 17.1 µM
  TGI: 84.7 µM
SF-268 CNS
  GI50: 64.8 µM
  TGI: > 100 µM
SF-295 CNS
  GI50: 68.5 µM
  TGI: > 100 µM
SF-539 CNS
  GI50: > 100 µM
  TGI: > 100 µM
SK-MEL-2 melanoma
  GI50: > 100 µM
  TGI: > 100 µM
SK-MEL-28 melanoma
  GI50: > 100 µM
  TGI: > 100 µM
SK-MEL-5 melanoma
  GI50: > 100 µM
  TGI: > 100 µM
SK-OV-3 ovarian
  GI50: > 100 µM
  TGI: > 100 µM
SN12C renal
  GI50: 23.5 µM
  TGI: > 100 µM
SNB-19 CNS
  GI50: > 100 µM
  TGI: > 100 µM
SNB-75 CNS
  GI50: 60.1 µM
  TGI: > 100 µM
SW-620 colon
  GI50: > 100 µM
  TGI: > 100 µM
T-47D breast
  GI50: > 100 µM
  TGI: > 100 µM
TK-10 renal
  GI50: 89.4 µM
  TGI: > 100 µM
U251 CNS
  GI50: 48.8 µM
  TGI: > 100 µM
UACC-257 melanoma
  GI50: 66.8 µM
  TGI: > 100 µM
UACC-62 melanoma
  GI50: 76.8 µM
  TGI: > 100 µM
UO-31 renal
  GI50: > 100 µM
  TGI: > 100 µM
